Legend:
human NTPDase1 (CD39) = biological target: T1, human NTPDase1 (CD39) (Homo sapiens, UniProt P49961); assay: NTPDase CE-based assay, NTPDase1; format: biochemical; settings: 20 µg/mL (12 µM); read-out: NTPDase1 inhibition, selectivity study
T1 construct: made in house; host or cells: COS-7 cells
T1 sequence (P49961 1-510): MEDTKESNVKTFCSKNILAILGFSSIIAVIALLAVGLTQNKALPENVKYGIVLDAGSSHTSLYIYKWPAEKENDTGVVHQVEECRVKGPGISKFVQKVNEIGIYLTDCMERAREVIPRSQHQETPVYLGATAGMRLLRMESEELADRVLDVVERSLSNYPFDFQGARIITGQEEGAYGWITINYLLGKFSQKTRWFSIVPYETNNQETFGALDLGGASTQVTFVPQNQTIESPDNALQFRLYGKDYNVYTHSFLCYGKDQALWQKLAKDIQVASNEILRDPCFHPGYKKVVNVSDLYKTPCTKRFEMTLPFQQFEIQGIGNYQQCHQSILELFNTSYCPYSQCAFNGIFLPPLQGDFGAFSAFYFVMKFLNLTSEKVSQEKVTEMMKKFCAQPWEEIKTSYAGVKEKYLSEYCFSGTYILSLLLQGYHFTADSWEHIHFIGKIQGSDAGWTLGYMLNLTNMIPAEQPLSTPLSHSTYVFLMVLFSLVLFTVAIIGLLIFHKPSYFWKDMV
Protocol: For monitoring the activity of human NTPDases (subtypes 1, 2, 3 and 8) in the presence of test compounds, a CE-based assay system was used, according to a published procedure ([11], [25]). The following concentrations of test compounds were investigated in initial screening studies: 63 IU/mL of compounds 1 and 2, 30 µM of compound 6. For selectivity studies, the following concentration were employed: 50 IU/mL of 1, 12 µM of 6, and 48 µM of 7. The amount of enzyme was selected according to previously performed enzymatic titration, and adjusted to ensure a 10–20% conversion rate. Enzymes were obtained by transfection of COS-7 cells using plasmids encoding human NTPDase1 (GenBank accession number U87967) ([26]), NTPDase2 (NM_203468) ([27]), a kind gift of Dr. A.F. Knowles (San Diego, CA), NTPDase3 (AF034840) ([28]), a kind gift of Dr. T.L. Kirley (Cincinnati, OH) and human NTPDase8 (AY430414) ([29]) and purified as previously described ([30], [31]). The reaction buffer consisted of 10 mM HEPES, 2 mM CaCl2, and 1 mM MgCl2, pH 7.4. In the CE assay, the selected substrate concentration (ATP) was 100 µM for all studied human NTPDases (-1, -2, -3 and -8). […] The released products were separated by CE and quantified by their UV-absorption at 260 nm with ADP and AMP as external standards, as previously described ([11]); positive and negative controls were included.

human CD73 = biological target: T2, human CD73 (Homo sapiens, UniProt P21589); assay: CD73 radioactive assay, [2,8-3H]AMP; format: biochemical; settings: 20 µg/mL (12 µM)
T2 sequence (P21589 27-574): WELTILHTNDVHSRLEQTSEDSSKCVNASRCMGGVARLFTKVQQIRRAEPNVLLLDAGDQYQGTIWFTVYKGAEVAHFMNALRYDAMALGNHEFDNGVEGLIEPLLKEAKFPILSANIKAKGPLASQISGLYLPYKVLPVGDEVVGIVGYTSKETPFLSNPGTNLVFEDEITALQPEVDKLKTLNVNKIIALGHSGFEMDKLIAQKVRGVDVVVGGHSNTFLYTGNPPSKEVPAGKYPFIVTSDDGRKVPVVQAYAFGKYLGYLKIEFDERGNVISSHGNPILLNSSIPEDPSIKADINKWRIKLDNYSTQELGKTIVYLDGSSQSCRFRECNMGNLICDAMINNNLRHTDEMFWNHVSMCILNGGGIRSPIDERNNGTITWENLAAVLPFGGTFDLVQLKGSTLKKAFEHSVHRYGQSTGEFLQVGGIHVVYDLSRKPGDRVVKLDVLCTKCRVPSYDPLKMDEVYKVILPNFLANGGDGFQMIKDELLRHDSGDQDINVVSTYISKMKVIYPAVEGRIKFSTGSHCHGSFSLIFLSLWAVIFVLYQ
Protocol: The assay was performed essentially as previously described ([32]). The enzymatic reaction was performed by mixing 0.36 ng of human CD73 ([33]) with test compound in assay buffer (25 mM Tris, 140 mM sodium chloride, 25 mM sodium dihydrogen phosphate, pH 7.4) and 5 µM of [2,8-^3H]AMP [(specific activity 7.4x10^8 Bq/mmol (20 mCi/mmol)), American Radio-labeled Chemicals, MO, USA, distributed by Hartmann Analytic, Germany]. Compound 7 was used at 800 µg/mL and compound 6 at 20 µg/mL for the selectivity test, while for initial screening compound 5 was tested at a concentration of 55 µM and 6 at 30 µM, and 1 and 2 were tested at 50 IU/mL ( Supplementary Figure 1 ). The enzymatic reaction was performed for 25 min at 37°C in a shaking water bath. Then, 500 µL of cold precipitation buffer (100 mM lanthanum chloride, 100 mM sodium acetate, pH 4.00) was added to stop the reaction and to facilitate precipitation of free phosphate and unconverted [2,8-^3H]-AMP. […] After washing each reaction vial three times with 400 µL of cold (4°C) demineralized water, 5 mL of the scintillation cocktail (ULTIMA Gold XR, PerkinElmer, MA, USA) was added and the radioactivity was measured by scintillation counting (TRICARB 2900 TR, Packard/PerkinElmer; counting efficacy: 49-52%). […]

inhibition at 12 µM (human NTPDase1 (CD39)): ~35% | CD73 inhibition, selectivity study (human CD73): no effect
SMILES: CO[C@H]1O[C@H](COS(=O)(=O)O)[C@@H](O[C@@H]2O[C@@H](C(=O)O)[C@@H](O[C@H]3O[C@H](COS(=O)(=O)O)[C@@H](O[C@@H]4O[C@H](C(=O)O)[C@@H](O[C@H]5O[C@H](COS(=O)(=O)O)[C@@H](O)[C@H](O)[C@H]5NS(=O)(=O)O)[C@H](O)[C@H]4O)[C@H](OS(=O)(=O)O)[C@H]3NS(=O)(=O)O)[C@H](O)[C@H]2OS(=O)(=O)O)[C@H](O)[C@H]1NS(=O)(=O)O [Compound 6, Fondaparinux]

Source: article PMC10497752, “Heparins are potent inhibitors of ectonucleotide pyrophosphatase/phospho-diesterase-1 (NPP1) – a promising target for the immunotherapy of cancer” (Frontiers in Immunology, 2023)
